According to ChEMBL document CHEMBL1128091, “Ly316340: A potent HIV-1 protease inhibitor containing a high affinity octahydrothienopyridine hydroxyethylamine isostere” (Bioorg Med Chem Lett, 1995):

Key:
CEM-SS [1] = experiment: (§1) Inhibitory concentration required for antiviral activity against HXB-2 infected CEM-SS cells; assay type: functional, cell-based; details: Homo sapiens
CEM-SS [2] = experiment: as §1; assay type: functional; details: Homo sapiens
[3] = (§2) Cmax value was evaluated in rats at a dose of 20 mg/kg; assay type: ADME, organism-based; design: dose 20 mg/kg; details: rat, in vivo
Rattus norvegicus = experiment: as §2; assay type: ADME, organism-based; design: dose 20 mg/kg; details: in vivo
[4] = Bioavailability was evaluated in rats at a dose of 20 mg/kg, under fasting state; assay type: ADME, organism-based; details: rat, in vivo
[5] = Bioavailability was evaluated in rats at a dose of 20 mg/kg, under fed state; assay type: ADME, organism-based; details: rat, in vivo
[6] = target: Human immunodeficiency virus type 1 protease (Human immunodeficiency virus 1, UniProt Q72874); experiment: Inhibitory concentration required against HIV-1 protease

Question: Which IC50 (CEM-SS [1]) does the source give for `CC(C)(C)NC(=O)[C@@H]1C[C@@H]2CCCC[C@@H]2CN1C[C@@H](O)[C@H](Cc1ccccc1)NC(=O)[C@H](CC(N)=O)NC(=O)c1ccc2ccccc2n1` here?
Answer: 6.6 nM

Question: What about the IC95 (CEM-SS [2]) of the same compound?
Answer: 21 nM

Question: What does the source list for `CS(=O)(=O)O.Cc1c(O)cccc1C(=O)N[C@@H](CSc1ccccc1)[C@H](O)CN1C[C@H]2CCS[C@H]2C[C@H]1C(=O)NC(C)(C)C`?
Answer: Cmax [3]: 1400 nM; Cmax (Rattus norvegicus): 1000 nM; bioavailability [4]: 22%; bioavailability [5]: 19%

Question: With `Cc1c(O)cccc1C(=O)N[C@@H](Cc1ccccc1)[C@H](O)CN1C[C@H]2CCS[C@H]2C[C@H]1C(=O)NC(C)(C)C` as the compound, how does the IC50 (CEM-SS [1]) read?
Answer: 24 nM

Question: What about the IC95 (CEM-SS [2]) of the same compound?
Answer: 1360 nM

Question: And the IC50 [6]?
Answer: 0.5 nM

Question: With `CC(C)(C)NC(=O)[C@@H]1C[C@@H]2CCCC[C@@H]2CN1C[C@@H](O)[C@H](Cc1ccccc1)NC(=O)OCc1ccccc1` as the compound, how does the IC50 [6] read?
Answer: 127 nM

Question: For `CC(C)(C)NC(=O)[C@@H]1C[C@@H]2SCC[C@@H]2CN1C[C@@H](O)[C@H](Cc1ccccc1)NC(=O)OCc1ccccc1`, which IC50 [6] is on record?
Answer: 6.6 nM

Question: Which IC50 (CEM-SS [1]) does the source give for `Cc1c(O)cccc1C(=O)N[C@@H](CSc1ccccc1)[C@H](O)CN1C[C@H]2CCS[C@H]2C[C@H]1C(=O)NC(C)(C)C` here?
Answer: 5.1 nM

Question: What about the IC95 (CEM-SS [2]) of the same compound?
Answer: 18 nM

Question: And the IC50 [6]?
Answer: 0.3 nM

Question: With `Cc1c(O)cccc1C(=O)N[C@@H](Cc1ccccc1)[C@H](O)CN1C[C@H]2CCCC[C@H]2C[C@H]1C(=O)NC(C)(C)C` as the compound, how does the IC50 (CEM-SS [1]) read?
Answer: 33 nM

Question: What about the IC95 (CEM-SS [2]) of the same compound?
Answer: 135 nM

Question: What about the IC50 [6] of the same compound?
Answer: 13 nM
